From PMC12491701, “Discovery of an APP-selective BACE1 inhibitor for Alzheimer's disease” (Neurotherapeutics, 2025) come the findings set out here.

In one assay the target is BACE1 (Homo sapiens, UniProt P56817). Kind of assay: P5-P5′ BACE1 inhibition assay. The assay is classed as biochemical. Conditions: cell-free; read-out: BACE1 IC50 (P5-P5′ assay; BACE1-APP).
The next assay addresses T1, BACE1 cleavage of NRG1 (Homo sapiens, UniProt P56817).
T1 construct: with or without full-length wild-type BACE1; expressed in transfected cells; host or cells: HEK293
Kind of assay: SEAP-NRG assay. The assay is classed as cell-based. Conditions: SEAP-NRG1, HEK293.

Another assay deals with T2, BACE1 cleavage of PSGL1 (Homo sapiens, UniProt P56817).
T2 construct: with or without full-length wild-type BACE1; expressed in transfected cells; host or cells: HEK293
T2 sequence (P56817 46-501): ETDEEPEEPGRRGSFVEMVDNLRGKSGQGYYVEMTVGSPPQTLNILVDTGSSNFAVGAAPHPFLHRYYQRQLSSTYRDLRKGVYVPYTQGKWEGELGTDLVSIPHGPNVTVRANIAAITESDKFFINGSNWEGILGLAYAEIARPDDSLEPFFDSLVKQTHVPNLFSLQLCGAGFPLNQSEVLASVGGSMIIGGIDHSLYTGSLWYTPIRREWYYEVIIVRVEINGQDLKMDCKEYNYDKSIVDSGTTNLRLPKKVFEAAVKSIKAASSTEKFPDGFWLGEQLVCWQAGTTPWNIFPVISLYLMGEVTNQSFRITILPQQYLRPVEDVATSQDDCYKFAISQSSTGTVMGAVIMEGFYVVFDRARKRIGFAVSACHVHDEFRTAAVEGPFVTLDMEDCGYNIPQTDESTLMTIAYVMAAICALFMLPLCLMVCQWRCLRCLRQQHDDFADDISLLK
The assay can be described thus: PSGL1 assay (SEAP-PSGL1). The format is cell-based. Conditions: SEAP-PSGL1, HEK293.

Another assay addresses T3, cathepsin D (CatD) (Homo sapiens, UniProt P07339).
T3 construct: purchased R&D Systems 1014-AS
Kind of assay: Cathepsin D activity assay. The format is biochemical. Conditions: in words. How it is done: The effects of candidate ASBIs on cathepsin D (CatD) activity was assessed using the R&D Systems CatD activity assay kit (Catalog #: 1014-AS and ES001) according to the manufacturer's instructions. For the assay, 4 μL of assay buffer was added to each well, followed by 2 μL of CatD diluted in assay buffer to 5 ng/uL. Then, 2 μL of inhibitor, at concentrations along an 11 pt. two-fold dilution series starting at 50 μM, were added to appropriated wells and incubated for 30 min at room temperature. For all dilutions of inhibitor, drug stock solutions of 10 mM in DMSO were diluted to 50 μM in water; subsequent dilutions were in 2.5 % DMSO. Afterwards, 2 μL of fluorogenic CatD substrate, diluted to 50 μM in assay buffer, were added to each well, after which the signal generated was read every 30 min at 25 °C for 1hr.

For assay [1], the system named is CHO-7W cells expressing wildtype human APP. Kind of assay: sAPPβ and Aβ1-42 production in CHO-7W cells (AlphaLISA). Conditions: 1 μM, in words. The assay is classed as cell-based, Chinese hamster. The method, then:
Culture Media was collected and frozen. Media was assayed using an AlphaLISA for Aβ1-42 (Perkin Elmer catalog # AL276C), sAPPα (R&D Systems catalog # AF1168 conjugated with Perkin Elmer acceptor beads catalog # 6772001 + 2B3 antibody from IBL catalog # 11088 biotinylated), and sAPPβ (Perkin Elmer AL276-acceptor + IBL catalog # 18957 biotinylated). For the assay, 2 μL of diluted or undiluted sample was added to a 384 well plate, followed by 2 μL of the respective antibody mixture. This was incubated for 1 h. Afterwards, 2 μL of donor beads was added to each well, followed by a 30-min incubation in the dark, after which the signal was read.

The target in a further assay is eAPP (Homo sapiens, UniProt P05067). The assay can be described thus: APP binding by surface plasmon resonance (SPR). In general terms: Surface plasmon resonance follows binding to a sensor surface in real time, without labels.
eAPP, sequence (P05067 18-701): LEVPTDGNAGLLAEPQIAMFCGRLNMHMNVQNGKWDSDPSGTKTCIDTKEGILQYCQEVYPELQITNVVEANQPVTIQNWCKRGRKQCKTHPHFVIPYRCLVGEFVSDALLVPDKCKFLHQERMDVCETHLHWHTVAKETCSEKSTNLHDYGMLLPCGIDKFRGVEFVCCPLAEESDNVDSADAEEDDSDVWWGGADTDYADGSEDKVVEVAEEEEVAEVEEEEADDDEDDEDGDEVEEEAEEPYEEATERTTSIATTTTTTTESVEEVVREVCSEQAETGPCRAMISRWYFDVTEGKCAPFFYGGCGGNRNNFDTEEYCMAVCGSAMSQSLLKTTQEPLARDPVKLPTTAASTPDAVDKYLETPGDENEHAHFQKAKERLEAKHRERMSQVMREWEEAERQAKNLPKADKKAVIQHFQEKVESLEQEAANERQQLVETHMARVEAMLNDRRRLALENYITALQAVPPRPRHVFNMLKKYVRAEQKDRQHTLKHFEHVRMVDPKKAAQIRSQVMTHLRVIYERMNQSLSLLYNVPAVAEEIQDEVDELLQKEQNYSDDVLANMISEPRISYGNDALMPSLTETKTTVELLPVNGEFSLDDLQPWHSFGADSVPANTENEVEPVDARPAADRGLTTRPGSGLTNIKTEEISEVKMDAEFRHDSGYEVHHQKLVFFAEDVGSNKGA
Assay [2] deals with BACE1 cleavage of MBP-APPC125 substrate (Homo sapiens, UniProt P56817). Kind of assay: MBP-APPC125 BACE1 cleavage assay. The assay is classed as biochemical. Conditions: in words. How it is done: (-)/peak 2 enantiomers. […] Specifically, 2 μL of the Acc-Mix was loaded into each well and incubated for 1-hour at RT, then 2 μL of Donor-Mix was added and incubated for 30 min at room RT protected from light. The signal was quantified using an Envision Plate reader (Fig S6). Testing of FA[…](-) in HEK-APP-GFP cells HEK293T cells stably transfected with human APP (P05067-1, […]) tagged with Green Fluorescent Protein (GFP) on the N-terminal (HEK-APP; AcroBiosystems cat# CHEK-ATP081) were cultured according to manufacturer recommendations. […] Cells were then washed with PBS and imaged at 37 °C and 5% CO2 using a BioTek Lionheart FX microscope using brightfield and green fluorescence filters with a 20X objective. Images were then processed with Gen5 software to obtain the total intensity of the GFP channel (469/525) and the mean GFP channel intensity.(Fig S7, S8) Supplementary Figures Figure S1. BACE inhibition dose-response and pharmacokinetics for FAH1 and FAH3. (a) IC50 curves for FAH1, 3, 17 and 65 in the P5-P5' assay described in main manuscript. […] μM, respectively. […] 150 FAH-65 BA C E-IV 100 50 0 50 10 0. 1 [ ] µM Figure S2. FAH65 in the BACE2 assay. […] 6 (1 picture or pasted object on this page, not shown here)
BACE1 cleavage of MBP-APPC125 substrate, sequence (P56817 46-501): as the sequence (P56817 46-501) above

Several values for one entry are separate records, joined by “and”; a condition that tells them apart may be missing. Equal values may be shown once.

BACE1, sequence (P56817 46-501): as above
T3 sequence (P07339 65-412): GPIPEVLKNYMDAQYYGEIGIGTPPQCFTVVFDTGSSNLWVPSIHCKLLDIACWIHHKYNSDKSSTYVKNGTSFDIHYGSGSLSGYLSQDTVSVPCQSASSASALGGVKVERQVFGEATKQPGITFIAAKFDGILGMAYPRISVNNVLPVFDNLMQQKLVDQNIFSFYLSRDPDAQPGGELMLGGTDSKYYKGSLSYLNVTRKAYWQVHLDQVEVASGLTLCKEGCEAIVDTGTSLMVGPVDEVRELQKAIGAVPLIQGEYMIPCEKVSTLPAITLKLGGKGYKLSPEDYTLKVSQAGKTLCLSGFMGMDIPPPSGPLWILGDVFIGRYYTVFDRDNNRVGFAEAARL
T1 sequence (P56817 46-501): as the sequence (P56817 46-501) above
Protocol for BACE1 cleavage of NRG1: A cDNA construct encoding a human placental secreted alkaline phosphatase (SEAP)-NRG1 (pAPtag5-NRG1-β1) fusion protein was transfected in human embryonic kidney (HEK293) cells in a 6-well format with or without full-length wild-type BACE1 using Lipofectamine 2000 (Invitrogen) as described previously [27]. After transfection, the medium was replaced with DMEM containing the test compound at 10, 5, 1, 0.1, and 0.01 ​μM as well as 10 ​% heat-inactivated fetal bovine serum (FBS), then incubated for 24 ​h. SEAP activity was measured in the conditioned medium.
Protocol for BACE1 cleavage of PSGL1: A cDNA construct encoding a human placental secreted alkaline phosphatase (SEAP)-PSGL1 (pAPtag5-PSGL1-β1) fusion protein was transfected in human embryonic kidney (HEK293) cells in a 6-well format with or without full-length wild-type BACE1 using Lipofectamine 2000 (Invitrogen). After 6–8 ​h transfection, the medium was replaced with DMEM containing the test compound at 10, 5, 1, 0.1 and 0.01 ​μM and 10 ​% heat-inactivated fetal bovine serum (FBS), and incubated for 24 ​h. SEAP activity was measured in the conditioned medium.
Protocol for eAPP: The interaction of FAH3, 17 and 65 were evaluated using the SPR protocol described previously in Descamps et al., [26].
For these pilot experiments eAPP as described in Descamps et al (26) is crosslinked to a the CM5 Biacore chip. FAH3 at various concentration was used in the flow through the chip, and the plasmon resonance signal was determined using a Biacore T100. The raw data uncorrected for contribution of running buffer is fit to equilibrium binding data and corrected for the contribution of the running buffer to
For FAH17 and FAH65-APP binding was determined using SPR to determine competition with BSA that non-specifically binds to the eAPP-Biacore chip.

Regarding `Cc1cc(C2(c3cccc(F)c3)N=C(N)N(C)C2=O)ccc1OC(F)F` (stereo not drawn) [FAH17], the IC50 at BACE1 is ~0.3 µM and 0.3 µM. Further, the EC50 at BACE1 cleavage of NRG1 and on BACE1 cleavage of PSGL1 was above 10 µM in each case. Also, the “inhibition of cathepsin D activity” value against cathepsin D (CatD) is “Neither analog significantly inhibited”. For the same compound, in assay [1] (24-h treatment), the sAPPβ production entry was “decrease”. Besides, the Aβ1-42 production result in assay [1] was “decrease”. Also, the Kd on eAPP was around 3.3 µM.
`O=C1NC(=O)C(c2ccccc2)(c2ccccc2)N1` [phenytoin, reference compound]: the IC50 on BACE1 was above 200 µM. In assay [2], the “inhibition of BACE1 cleavage of MBP-APPC125” value was “weak inhibitor”.

The term IC50 denotes the midpoint of a concentration-inhibition curve. Usually EC50 stands for the concentration giving half of the maximal effect. Read a low EC50 as higher potency in that assay.
